In patent US11673876B2, “Substituted aminobenzyl heteroaryl compounds as EGFR and/or PI3K inhibitors” (Mekanistic Therapeutics LLC, priority 2020, dated 2023) one finds inhibition data, which are given here for 18 compounds.

SMILES strings stand for the structures. Some results are limits rather than exact numbers.

Common to all, as to type: biochemical
One assay concerns the target DNA-PK (Homo sapiens (Human), UniProt P78527). The assay is described as follows: Z'-LYTE / Adapta kinase assay, DNA-PK. The settings on record: read-out: DNA-PK % Inh. @ 100 nM. The source says:
(§1) The Z′-LYTE® biochemical assay employs a fluorescence-based, coupled-enzyme format and is based on the differential sensitivity of phosphorylated and non-phosphorylated peptides to proteolytic cleavage (FIG. 6). The peptide substrate is labeled with two fluorophores one at each end—that make up a FRET pair. In the primary reaction, the kinase transfers the gamma-phosphate of ATP to a single tyrosine, serine or threonine residue in a synthetic FRET-peptide. In the secondary reaction, a site-specific protease recognizes and cleaves non-phosphorylated FRET-peptides. Phosphorylation of FRET-peptides suppresses cleavage by the Development Reagent. Cleavage disrupts FRET between the donor (i.e., coumarin) and acceptor (i.e., fluorescein) fluorophores on the FRET-peptide, whereas uncleaved, phosphorylated FRET-peptides maintain FRET. A ratiometric method, which calculates the ratio (the Emission Ratio) of donor emission to acceptor emission after excitation of the donor fluorophore at 400 nm, is used to quantitate reaction progress.
(§2) A significant benefit of this ratiometric method for quantitating reaction progress is the elimination of well-to-well variations in FRET-peptide concentration and signal intensities. As a result, the assay yields very high Z′-factor values (>0.7) at a low percent phosphorylation.
(§3) Both cleaved and uncleaved FRET-peptides contribute to the fluorescence signals and therefore to the Emission Ratio. The extent of phosphorylation of the FRET-peptide can be calculated from the Emission Ratio.
(§4) Enzyme: The ADAPTA universal kinase assay is a homogenous, fluorescent based immunoassay for the detection of ADP. In contrast to ATP depletion assays, the ADAPTA assay is extremely sensitive to ADP formation such that a majority of the signal change occurs in the first 10-20% conversion of ATP to ADP. This makes the ADAPTA universal kinase assay ideally suited for use with low activity kinases.
(§5) The principle of the ADAPTA universal kinase assay is outlined below. The assay itself can be divided into two phases: a kinase reaction phase, and an ADP detection phase. In the kinase reaction phase, all components required for the kinase reaction are added to the well, and the reaction is allowed to incubate for 60 minutes.
(§6) Z′-LYTE® Assay Conditions:
(§7) Test Compounds: The Test Compounds are screened in 1% DMSO (final) in the well. For 10 point titrations, 3-fold serial dilutions are conducted from the starting concentration.
(§8) Peptide/Kinase Mixtures: All Peptide/Kinase Mixtures are diluted to a 2× working concentration in the appropriate Kinase Buffer.
(§9) ATP Solution: All ATP Solutions are diluted to a 4× working concentration in Kinase Buffer (50 mM HEPES pH 7.5, 0.01% BRIJ-35, 10 mM MgCl2, 1 mM EGTA). ATP Km apparent is previously determined using a Z′-LYTE® assay.
(§10) Development Reagent Solution: The Development Reagent is diluted in Development Buffer. […]
(§11) 2.5 μL—4× Test Compound or 100 nL 100× plus 2.4 μL kinase buffer. 2. 5 μL—2× Peptide/Kinase Mixture. 3. 2.5 μL—4× ATP Solution. 4. 30-second plate shake. 5. 60-minute Kinase Reaction incubation at room temperature. 6. 5 μL—Development Reagent Solution. 7. 30-second plate shake. 8. 60-minute Development Reaction incubation at room temperature. 9.

A further assay addresses PI3Ka (Homo sapiens (Human), UniProt P42336). In words: Z'-LYTE / Adapta kinase assay, PI3Ka. The settings on record: read-out: PI3Ka % Inh. @ 100 nM.
Excerpt: as §1, §2, §3, §4, §5, §6, §7, §8, §9, §10, §11

The next assay has as its target EGFR (Homo sapiens (Human), UniProt P00533). In words: Z'-LYTE / Adapta kinase assay, EGFR. As to conditions: read-out: EGFR % Inh. @ 100 nM.
Excerpt: as §1, §2, §3, §4, §5, §6, §7, §8, §9, §10, §11

Chain of EGFR (P00533 25-1210): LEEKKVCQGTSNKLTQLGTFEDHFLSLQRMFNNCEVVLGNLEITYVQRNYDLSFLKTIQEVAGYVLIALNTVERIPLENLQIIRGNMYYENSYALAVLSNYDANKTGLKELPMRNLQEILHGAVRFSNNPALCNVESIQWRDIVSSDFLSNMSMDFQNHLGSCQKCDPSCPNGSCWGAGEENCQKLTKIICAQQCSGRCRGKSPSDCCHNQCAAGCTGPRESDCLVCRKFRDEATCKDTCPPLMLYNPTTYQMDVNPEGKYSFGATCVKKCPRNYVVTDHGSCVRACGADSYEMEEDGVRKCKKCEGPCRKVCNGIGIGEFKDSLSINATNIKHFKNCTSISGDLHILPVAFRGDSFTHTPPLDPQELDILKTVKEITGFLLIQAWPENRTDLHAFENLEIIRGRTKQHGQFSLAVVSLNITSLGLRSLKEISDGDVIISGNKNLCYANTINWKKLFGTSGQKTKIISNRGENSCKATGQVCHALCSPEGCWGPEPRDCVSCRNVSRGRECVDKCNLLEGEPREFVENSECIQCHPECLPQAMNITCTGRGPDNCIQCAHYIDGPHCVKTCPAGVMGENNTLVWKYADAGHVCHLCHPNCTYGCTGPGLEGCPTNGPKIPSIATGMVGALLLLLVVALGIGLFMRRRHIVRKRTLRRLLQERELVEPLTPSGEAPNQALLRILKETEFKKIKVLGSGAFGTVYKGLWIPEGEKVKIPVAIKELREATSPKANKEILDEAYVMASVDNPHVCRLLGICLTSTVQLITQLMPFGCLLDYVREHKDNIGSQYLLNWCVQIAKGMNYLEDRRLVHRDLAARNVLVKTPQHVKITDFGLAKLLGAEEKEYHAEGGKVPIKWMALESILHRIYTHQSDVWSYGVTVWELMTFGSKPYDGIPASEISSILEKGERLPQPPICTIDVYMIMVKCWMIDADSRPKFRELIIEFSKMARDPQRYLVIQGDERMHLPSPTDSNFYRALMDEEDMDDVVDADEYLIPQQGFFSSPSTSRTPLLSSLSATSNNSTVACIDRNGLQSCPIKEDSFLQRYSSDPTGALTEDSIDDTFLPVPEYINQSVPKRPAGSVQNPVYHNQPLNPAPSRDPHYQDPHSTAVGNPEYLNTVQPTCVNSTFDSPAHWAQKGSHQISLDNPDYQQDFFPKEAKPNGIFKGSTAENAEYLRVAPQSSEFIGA
Chain of PI3Ka (P42336 whole entry): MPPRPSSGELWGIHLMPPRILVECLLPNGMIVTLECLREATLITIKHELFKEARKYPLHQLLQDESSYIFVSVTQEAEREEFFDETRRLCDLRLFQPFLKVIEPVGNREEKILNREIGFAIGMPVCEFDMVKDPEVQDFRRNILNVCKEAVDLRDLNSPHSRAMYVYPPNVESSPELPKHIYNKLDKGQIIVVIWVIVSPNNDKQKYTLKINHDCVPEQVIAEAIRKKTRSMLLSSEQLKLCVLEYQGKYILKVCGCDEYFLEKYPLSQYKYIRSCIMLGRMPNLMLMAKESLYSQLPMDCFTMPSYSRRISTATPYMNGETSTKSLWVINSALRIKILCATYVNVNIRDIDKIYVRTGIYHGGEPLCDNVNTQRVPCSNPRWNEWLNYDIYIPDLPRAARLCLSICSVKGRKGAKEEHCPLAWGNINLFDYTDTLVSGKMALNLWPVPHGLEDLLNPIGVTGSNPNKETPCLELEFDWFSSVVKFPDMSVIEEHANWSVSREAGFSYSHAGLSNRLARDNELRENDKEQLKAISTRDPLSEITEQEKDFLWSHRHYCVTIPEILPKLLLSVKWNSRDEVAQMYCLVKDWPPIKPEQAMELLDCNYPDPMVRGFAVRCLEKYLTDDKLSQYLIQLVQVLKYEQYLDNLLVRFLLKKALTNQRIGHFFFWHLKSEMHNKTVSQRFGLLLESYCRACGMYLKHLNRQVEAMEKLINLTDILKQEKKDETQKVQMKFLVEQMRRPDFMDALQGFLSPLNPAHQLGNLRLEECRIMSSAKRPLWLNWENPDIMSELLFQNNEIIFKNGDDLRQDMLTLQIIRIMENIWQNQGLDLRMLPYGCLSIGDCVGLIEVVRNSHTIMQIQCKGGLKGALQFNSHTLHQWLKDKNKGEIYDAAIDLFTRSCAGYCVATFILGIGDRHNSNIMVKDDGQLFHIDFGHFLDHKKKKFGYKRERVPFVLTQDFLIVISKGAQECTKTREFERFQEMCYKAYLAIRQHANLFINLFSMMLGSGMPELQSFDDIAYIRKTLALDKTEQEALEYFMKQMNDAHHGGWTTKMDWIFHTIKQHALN
Chain of PI3Ka (P27986 whole entry partner): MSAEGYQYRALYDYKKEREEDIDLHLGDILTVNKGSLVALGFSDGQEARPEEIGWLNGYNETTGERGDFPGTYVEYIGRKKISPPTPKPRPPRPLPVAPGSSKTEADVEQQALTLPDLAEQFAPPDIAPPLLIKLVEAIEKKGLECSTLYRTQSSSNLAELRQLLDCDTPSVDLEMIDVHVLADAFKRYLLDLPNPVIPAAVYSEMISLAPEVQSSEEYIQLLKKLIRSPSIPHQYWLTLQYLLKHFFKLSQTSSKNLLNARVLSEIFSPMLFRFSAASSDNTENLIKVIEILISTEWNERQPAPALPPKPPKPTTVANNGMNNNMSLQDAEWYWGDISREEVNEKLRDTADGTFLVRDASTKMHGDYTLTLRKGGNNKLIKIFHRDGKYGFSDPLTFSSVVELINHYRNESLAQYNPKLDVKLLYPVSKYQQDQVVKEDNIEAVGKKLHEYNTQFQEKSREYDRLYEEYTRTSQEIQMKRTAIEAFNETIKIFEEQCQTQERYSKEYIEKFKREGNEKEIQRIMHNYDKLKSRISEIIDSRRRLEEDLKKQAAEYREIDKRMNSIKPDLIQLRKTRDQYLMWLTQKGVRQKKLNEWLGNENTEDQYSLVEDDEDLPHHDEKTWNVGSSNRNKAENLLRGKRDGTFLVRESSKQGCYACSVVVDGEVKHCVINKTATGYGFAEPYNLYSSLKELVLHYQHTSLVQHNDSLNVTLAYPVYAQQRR

Turning to `CC(Nc1c(C#N)cnc2ccc(-c3cnc4ccccc4c3)cc12)c1ccccc1` (stereo not drawn) [Compound 122, 4-(1-phenylethylamino)-6-(3-quinolyl)quinoline-3-carbonitrile], the inhibition at 0.1 µM at DNA-PK was under 10%; on PI3Ka, under 10%; at EGFR it was 10 to 80%.

Turning to `CC(Nc1c(C#N)cnc2ccc(-c3cccnc3)cc12)c1ccccc1` (stereo not drawn) [Compound 123, 4-(1-phenylethylamino)-6-(3-pyridyl) quinoline-3-carbonitrile], the inhibition at 0.1 µM at DNA-PK was 10 to 80%; on PI3Ka, under 10%; on EGFR, over 90%.

For the compound `CC(Nc1c(C#N)cnc2ccc(-c3n[nH]c4ccncc34)cc12)c1ccccc1` (stereo not drawn) [Compound 124, 4-(1-phenylethylamino)-6-(1H-pyrazolo [4,3-c]pyridin-3-yl) quinoline-3-carbonitrile], the inhibition at 0.1 µM on DNA-PK is under 10%; on PI3Ka, under 10%; on EGFR it was over 90%.

Turning to `CC(Nc1c(C#N)cnc2ccc(-c3n[nH]c4cnccc34)cc12)c1ccccc1` (stereo not drawn) [Compound 125, 4-(1-phenylethylamino)-6-(1H-pyrazolo [3,4-c]pyridin-3-yl)quinoline-3-carbonitrile], the figures for the inhibition at 0.1 µM on DNA-PK, at PI3Ka and at EGFR were 10 to 80%, under 10% and over 90%, respectively.

Consider `COc1ncc(-c2ccc3ncc(C#N)c(NC(C)c4ccccc4)c3c2)cc1C#N` (stereo not drawn) [Compound 126, 6-(5-cyano-6-methoxy-3-pyridyl)-4-(1-phenylethylamino) quinoline-3-carbonitrile], for which the inhibition at 0.1 µM on DNA-PK is under 10%; at PI3Ka, 10 to 80%; on EGFR it was 10 to 80%.

For `CC(Nc1c(C#N)cnc2ccc(-c3cccc(-c4n[nH]c(=O)o4)c3)cc12)c1ccccc1` (stereo not drawn) [Compound 127, 6-[3-(2-oxo-3H-1,3,4-oxadiazol-5-yl)phenyl]-4-(1-phenylethylamino) quinoline-3-carbonitrile], the inhibition at 0.1 µM on DNA-PK is 10 to 80%; on PI3Ka it was under 10%; at EGFR, 80 to 90%.

`CC(Nc1c(C#N)cnc2ccc(-c3cccc(-c4nnc[nH]4)c3)cc12)c1ccccc1` (stereo not drawn) [Compound 128, 4-(1-phenylethylamino)-6-[3-(4H-1,2,4-triazol-3-yl)phenyl]quinoline-3-carbonitrile]: the inhibition at 0.1 µM was under 10% at DNA-PK, under 10% on PI3Ka and 80 to 90% on EGFR.

As for `CC(Nc1c(C#N)cnc2ccc(-c3cc(F)c(O)c(F)c3)cc12)c1ccccc1` (stereo not drawn) [Compound 130, 6-(3,5-difluoro-4-hydroxy-phenyl)-4-(1-phenylethylamino) quinoline-3-carbonitrile], the inhibition at 0.1 µM is under 10% at DNA-PK, under 10% at PI3Ka and 10 to 80% on EGFR.

Regarding `CC(Nc1c(C#N)cnc2ccc(-c3cc(Cl)c(O)c(Cl)c3)cc12)c1ccccc1` (stereo not drawn) [Compound 131, 6-(3,5-dichloro-4-hydroxy-phenyl)-4-(1-phenylethylamino) quinoline-3-carbonitrile], the inhibition at 0.1 µM at DNA-PK was under 10%; on PI3Ka, under 10%; on EGFR, 10 to 80%.

As for `COc1ncc(-c2ccc3ncnc(N[C@H](C)c4ccccc4)c3c2)cc1C#N` [Compound 132, 2-methoxy-5-[4-[[(1R)-1-phenylethyl]amino]quinazolin-6-yl]pyridine-3-carbonitrile], the inhibition at 0.1 µM at DNA-PK is under 10%; at PI3Ka, under 10%; at EGFR it was 10 to 80%.

For `C[C@@H](Nc1ncnc2ccc(-c3cncc(C(=O)NC#N)c3)cc12)c1ccccc1` [Compound 133, (R)-N-cyano-5-(4-((1-phenylethyl)amino)quinazolin-6-yl)nicotinamide], the inhibition at 0.1 µM on DNA-PK, at PI3Ka and at EGFR was under 10% throughout.

Consider `C[C@@H](Nc1ncnc2ccc(-c3cncc(C(=O)N(C)O)c3)cc12)c1ccccc1` [Compound 134, (R)-N-hydroxy-N-methyl-5-(4-((1-phenylethyl)amino)quinazolin-6-yl)nicotinamide], for which the inhibition at 0.1 µM on DNA-PK is under 10%; on PI3Ka it was under 10%; on EGFR it was over 90%.

Consider `COC(=O)c1cncc(-c2ccc3ncnc(N[C@H](C)c4ccccc4)c3c2)c1` [Compound 135, methyl 5-[4-[[(1R)-1-phenylethyl]amino]quinazolin-6-yl]pyridine-3-carboxylate], for which the inhibition at 0.1 µM at DNA-PK was under 10%; on PI3Ka, under 10%; at EGFR it was over 90%.

Regarding `C[C@@H](Nc1ncnc2ccc(-c3ccc4c(c3)C(=O)OC4)cc12)c1ccccc1` [Compound 136, 6-[4-[[(1R)-1-phenylethyl]amino]quinazolin-6-yl]-3H-isobenzofuran-1-one], the results for the inhibition at 0.1 µM on DNA-PK, on PI3Ka and at EGFR were under 10%, under 10% and over 90%, respectively.

For `C[C@@H](Nc1ncnc2ccc(-c3cccc(-c4nnc[nH]4)c3)cc12)c1ccccc1` [Compound 137, N-[(1R)-1-phenylethyl]-6-[3-(4H-1,2,4-triazol-3-yl)phenyl]quinazolin-4-amine], the inhibition at 0.1 µM at DNA-PK was under 10%; on PI3Ka, 10 to 80%; on EGFR, over 90%.

For the compound `C[C@@H](Nc1ncnc2ccc(-c3cncc(-c4nnc[nH]4)c3)cc12)c1ccccc1` [Compound 138, (R)-6-(5-(4H-1,2,4-triazol-3-yl)pyridin-3-yl)-N-(1-phenylethyl)quinazolin-4-amine], the values for the inhibition at 0.1 µM at DNA-PK, at PI3Ka and at EGFR were 10 to 80%, under 10% and over 90%, respectively.

Consider `CC(Nc1ncnc2ccc(-c3cnc4cnccn34)cc12)c1ccccc1` (stereo not drawn) [Compound 139, 6-imidazo[1,2-a]pyrazin-3-yl-N-(1-phenylethyl)quinazolin-4-amine], for which the inhibition at 0.1 µM on DNA-PK is under 10%; at PI3Ka, 10 to 80%; on EGFR, 10 to 80%.

Regarding `OCC(Nc1ncnc2ccc(-c3cnc4cnccn34)cc12)c1ccccc1` (stereo not drawn) [Compound 140, 2-[(6-imidazo[1,2-a]pyrazin-3-ylquinazolin-4-yl)amino]-2-phenyl-ethanol], the inhibition at 0.1 µM on DNA-PK is under 10%; at PI3Ka it was under 10%; at EGFR it was 10 to 80%.
